Measurements published in patent US5994569A, “Dihomo-seco-cholestanes” (Hoffmann-La Roche Inc., priority 1997, dated 1999).
Where two headings read alike, the source gives them in different places.

Tested on: IL-12 production
Assay: In vitro Assay for IL-12 Inhibition (IL-12 production by THP-1 cells or human peripheral whole blood, ELISA)
Assay type: cell-based
Conditions: read-out: IC50 values for the inhibition of IL-12 production
[1] = THP-1 cells stimulated with SAC and huIFN-γ (1000 U/ml), or alternatively human peripheral whole blood primed with huIFN-γ then SAC, supernatants after 48 hours, IL-12 by ELISA

Structure (SMILES) | IC50 [1] [nM] | IC50 (Homo sapiens, THP-1, 48 h) [nM]
C=C1/C(=C\C=C2/CCC[C@]3(C)[C@@H]([C@H](C)CCCC(C)(C)O)CC[C@@H]23)C[C@@H](O)C[C@@H]1O [Calcitriol, reference compound] | – | 60
C=C1C(=CC=C2CCCC3(C)C2CCC3C(C)CC=CC=CC(C)(C)O)CC(O)CC1O [Example 1, (5Z,7E ,23E,24aE)-(1R,3S)-24a,24b-dihomo-9,10-seco-cholesta-5,7,10(19),23,24a-pentaene-1,3,25-triol] | 10 | –
C=C1/C(=C\C=C2/CCC[C@]3(C)[C@@H]([C@H](C)C/C=C/C=C/C(C)(C)O)CC[C@@H]23)C[C@H](O)C[C@@H]1O [Example 3, (5Z,7E,23E,24aE)-(1S,3S)-24a,24b-Dihomo-9,10-seco-cholesta-5,7,10(19),23,24a-pentaene-1,3,25-triol] | 30 | –
C=C1/C(=C\C=C2/CCC[C@]3(C)[C@@H]([C@H](C)C/C=C/C=C/C(C)(C)O)CCC[C@@H]23)C[C@@H](O)C[C@@H]1O [Example 4, (5Z,7E,23E,24aE)-(1S,3R)-17a,24a,24b-trihomo-9,10-seco-cholesta-5,7,10(19),23,24a-pentaene-1,3,25-triol] | 1 | –
C=C1/C(=C\C=C2/CCC[C@]3(C)C([C@H](C)C/C=C/C=C/C(C)(C)O)=CCC[C@@H]23)C[C@@H](O)C[C@@H]1O [Example 8, (5Z,7E,23E,24aE)-(1S,3R)-17a,24a,24b-Trihomo-9,10-seco-cholesta-5,7,10(19),17,23,24a-hexaene-1,3,25-triol] | 1 | –

Second part, led by results:

IC50 [1] [nM] | Structure (SMILES) | IC50 (Homo sapiens, THP-1, 48 h) [nM]
10 | C[C@H](CC=CC#CC(C)(C)O)[C@H]1CC[C@H]2/C(=C/C=C3C[C@@H](O)C[C@H](O)C3)CCC[C@]12C [Example 13a, (7E,23E)- and (7E,23Z)-(1R,3R)-24a,24b-dihomo-19-nor-9,10-seco-cholesta-5,7,23-trien-24a-yne-1,3,25-triol] | –
10 | C[C@H](CC=CC#CC1(O)CCCC1)[C@H]1CC[C@H]2/C(=C/C=C3C[C@@H](O)C[C@H](O)C3)CCC[C@]12C [Example 13c, (7E,23E)- and (7E,23Z)-(1R,3R)-25-(1-hydroxy-cyclopentyl)-24a,24b-dihomo-19-nor-9,10-seco-cholesta-5,7,23-trien-24a-yne-1,3,25-diol] | –
10 | C[C@H](CC=CC#CC(O)(C(F)(F)F)C(F)(F)F)[C@H]1CC[C@H]2/C(=C/C=C3C[C@@H](O)C[C@H](O)C3)CCC[C@]12C [Example 13d, (7E,23E)- and (7E,23Z)-(1R,3R)-26,26,26,27,27,27-hexafluoro-24a,24b-dihomo-19-nor-9,10-seco-cholesta-5,7,23-trien-24a-yne-1,3,25-triol] | –
1 | CCC(O)(/C=C/C=CC[C@@H](C)[C@H]1CC[C@H]2/C(=C/C=C3C[C@@H](O)C[C@H](O)C3)CCC[C@]12C)CC [Example 13e, (7E,23E24aE)- and (7E,23Z,24aE)-(1R,3R)-24a,24b,26a,26b-tetrahomo-19-nor-9,10-seco-cholesta-5,7,23,24a-tetraen-24a-yne-1,3,25-triol] | –
10 | C[C@H](CC=C/C=C/C1(O)CCCC1)[C@H]1CC[C@H]2/C(=C/C=C3C[C@@H](O)C[C@H](O)C3)CCC[C@]12C [Example 13f, (7E,23E,24aE)- and (7E,23Z,24aE)-(1R,3R)-25-(1-hydroxy-cyclopentyl)-24a,24b-dihomo-19-nor-9,10-seco-cholesta-5,7,23,24a-tetraen-24a-yne-1,3,25-diol] | –
